Test results reported in US20210395256A1, “TYROSINE KINASE INHIBITORS, COMPOSITIONS AND METHODS THERE OF” (Betta Pharmaceuticals Co., Ltd., priority 2018, published 2021).

Experiments:
CYP1A2 = biological target: T1, CYP1A2 (Homo sapiens, UniProt P05177); assay: Cytochrome P450 inhibition, CYP1A2; format: in vitro ADME; settings: probe Phenacetin (40 μM); 10 μM compound, human liver microsomes, substrate Phenacetin; read-out: Inhibition percentage CYP1A2 (Phenacetin)
T1 construct: from tissue; host or cells: human liver microsomes
T1 sequence (P05177 1-516): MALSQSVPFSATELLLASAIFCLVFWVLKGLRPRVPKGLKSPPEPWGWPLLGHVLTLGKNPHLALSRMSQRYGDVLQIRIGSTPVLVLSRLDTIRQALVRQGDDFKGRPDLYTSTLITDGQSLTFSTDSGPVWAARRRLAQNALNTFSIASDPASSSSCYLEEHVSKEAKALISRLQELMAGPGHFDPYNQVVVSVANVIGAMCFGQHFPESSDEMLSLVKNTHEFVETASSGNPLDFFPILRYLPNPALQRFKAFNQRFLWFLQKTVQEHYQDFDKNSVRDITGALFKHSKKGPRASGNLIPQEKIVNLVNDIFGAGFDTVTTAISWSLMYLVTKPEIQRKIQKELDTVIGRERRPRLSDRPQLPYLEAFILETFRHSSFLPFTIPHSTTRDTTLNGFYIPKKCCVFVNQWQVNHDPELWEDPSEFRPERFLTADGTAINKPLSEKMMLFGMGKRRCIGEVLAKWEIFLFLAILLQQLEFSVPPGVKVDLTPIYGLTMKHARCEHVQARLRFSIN
Method: Example 205 Cytochrome P450 Measurements The cytochrome P450 was measured as the following procedure: 1) A master solution containing phosphate buffer, ultra-pure H2O, MgCl2 solution and human liver microsomes was made according to Table 17, and then 1 μL of 2 mM of compound solution or 1 μL of DMSO (as without inhibitor control) was added to the above master solution. The final concentration of test compounds or control compounds was 10 μM. [table] 2) For CYP1A2 inhibition, 1 μL of specific drug substrate (Phenacetin: 8 mM) was added at the final concentration of 40 μM to the above solution. 8) The mixture was pre-warmed at 37° C. for 5 min. The reaction was started by the addition of 20 μL of 10 mM NADPH solution at the final concentration of 1 mM and carried out at 37° C. 9) The reaction was stopped by addition of 300 μL of cold quench solution (methanol containing internal standards (1S, 500 nM Labetalol, 100 nM Alprazolam and 2 μM Ketoprofen) at the designated time points (Phenacetin: 20 min; Paclitaxel: 10 min; Tolbutamide: 20 min; (s)-Mephenytoin: 20 min; Midazolam: 5 min; Testosterone: 10 min). Samples were vortexed for 5 minutes and centrifuged at 3220 g for 40 minutes at 4° C. And then 100 μL of the supernatant was transferred to a new 96-well plate with 100 μL or 200 μL water (depends on the LC-MS signal response and peak shape) for LC-MS/MS analysis. All experiments were performed in duplicates.

CYP3A4 = biological target: T2, CYP3A4 (Homo sapiens, UniProt P08684); assay: Cytochrome P450 inhibition, CYP3A4; format: in vitro ADME; settings: 10 μM compound, human liver microsomes; for inhibition at 5 min, 10 µM: probe Midazolam (5 μM), substrate Midazolam, read-out: Inhibition percentage CYP3A4 (Midazolam); for inhibition at 10 min, 10 µM: probe Testosterone (50 μM), substrate Testosterone, read-out: Inhibition percentage CYP3A4 (Testosterone)
T2 construct: from tissue; host or cells: human liver microsomes
Method: Example 205 Cytochrome P450 Measurements
The cytochrome P450 was measured as the following procedure:
1) A master solution containing phosphate buffer, ultra-pure H2O, MgCl2 solution and human liver microsomes was made according to Table 17, and then 1 μL of 2 mM of compound solution or 1 μL of DMSO (as without inhibitor control) was added to the above master solution. The final concentration of test compounds or control compounds was 10 μM.
6) For CYP3A4 inhibition, 1 μL of specific drug substrate (Midazolam: 1 mM) was added at the final concentration of 5 μM to the above solution.
7) For CYP3A4 inhibition, 1 μL of specific drug substrate (Testosterone: 10 mM) was added at the final concentration of 50 μM to the above solution.
8) The mixture was pre-warmed at 37° C. for 5 min. The reaction was started by the addition of 20 μL of 10 mM NADPH solution at the final concentration of 1 mM and carried out at 37° C.
9) The reaction was stopped by addition of 300 μL of cold quench solution (methanol containing internal standards (1S, 500 nM Labetalol, 100 nM Alprazolam and 2 μM Ketoprofen) at the designated time points (Phenacetin: 20 min; Paclitaxel: 10 min; Tolbutamide: 20 min; (s)-Mephenytoin: 20 min; Midazolam: 5 min; Testosterone: 10 min). Samples were vortexed for 5 minutes and centrifuged at 3220 g for 40 minutes at 4° C. And then 100 μL of the supernatant was transferred to a new 96-well plate with 100 μL or 200 μL water (depends on the LC-MS signal response and peak shape) for LC-MS/MS analysis.
All experiments were performed in duplicates.
Inhibition percentages for compounds against CYP1A2, CYP2C8, CYP2C9, CYP2C19, and […]

T2 sequence (P08684 whole entry): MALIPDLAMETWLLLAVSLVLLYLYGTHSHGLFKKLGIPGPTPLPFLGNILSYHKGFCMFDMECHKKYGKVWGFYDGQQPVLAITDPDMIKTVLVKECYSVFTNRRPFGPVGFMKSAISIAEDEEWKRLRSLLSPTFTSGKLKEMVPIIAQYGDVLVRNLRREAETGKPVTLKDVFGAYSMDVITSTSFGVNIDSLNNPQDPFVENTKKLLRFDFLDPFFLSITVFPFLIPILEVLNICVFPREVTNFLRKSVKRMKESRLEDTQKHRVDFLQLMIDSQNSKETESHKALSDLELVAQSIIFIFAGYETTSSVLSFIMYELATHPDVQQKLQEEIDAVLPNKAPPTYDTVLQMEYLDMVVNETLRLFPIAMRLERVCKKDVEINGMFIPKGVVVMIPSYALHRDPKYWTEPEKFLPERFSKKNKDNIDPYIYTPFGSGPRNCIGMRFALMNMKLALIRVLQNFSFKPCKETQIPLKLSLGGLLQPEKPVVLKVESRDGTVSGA

Row | inhibition at 20 min, 10 µM (CYP1A2) [%] | inhibition at 5 min, 10 µM (CYP3A4) [%] | inhibition at 10 min, 10 µM (CYP3A4) [%] | SMILES
1 | 1.53 | 20 | 22.8 | C[C@H](O)c1nnc(-c2cnn3ccc(N4CCC[C@@H]4c4cc(F)ccc4F)nc23)[nH]1 [Compound 4, (S)-1-(5-(5-((R)-2-(2,5-difluorophenyl)pyrrolidin-1-yl)pyrazolo[1,5-a]pyrimidin-3-yl)-4H-1,2,4-triazol-3-yl)ethan-1-ol]
2 | 4.38 | 22.4 | 29.5 | OC(c1nnc(-c2cnn3ccc(N4CCC[C@@H]4c4cc(F)ccc4F)nc23)[nH]1)C(F)(F)F (stereo partly drawn) [Compound 47, 1-(5-(5-((R)-2-(2,5-difluorophenyl)pyrrolidin-1-yl)pyrazolo[1,5-a]pyrimidin-3-yl)-4H-1,2,4-triazol-3-yl)-2,2,2-trifluoroethan-1-ol]
3 | 29 | 70.1 | 38.3 | Cc1nnc(-c2cnn3ccc(N4CCCC4c4cc(F)ccc4F)nc23)[nH]1 (stereo not drawn) [Comparative compound A, 5-[2-(2,5-Difluorophenyl)pyrrolidin-1-yl]-3-(5-methyl-1H-1,2,4-triazol-3-yl)pyrazolo[1,5-a]pyrimidine, reference compound]
4 | 8.54 | 6.97 | 5.7 | CC(C)(O)c1nnc(-c2cnn3ccc(N4CCC[C@@H]4c4cc(F)ccc4F)nc23)[nH]1 [Compound 7, (R)-2-(5-(5-(2-(2,5-difluorophenyl)pyrrolidin-1-yl)pyrazolo[1,5-a]pyrimidin-3-yl)-4H-1,2,4-triazol-3-yl)propan-2-ol]
